In ChEMBL document CHEMBL1201862, “PubChem BioAssay data set” (2004):
Activity calls are given as the source filed them.

Legend:
[1] = target: T1, High affinity choline transporter 1 (Homo sapiens, UniProt Q9GZV3); assay: human choline transporter potentiators, potency – cell-based, 10-point CRC, membrane potential dye, dose response (AID 602376); type: functional
T1 sequence (Q9GZV3 whole entry): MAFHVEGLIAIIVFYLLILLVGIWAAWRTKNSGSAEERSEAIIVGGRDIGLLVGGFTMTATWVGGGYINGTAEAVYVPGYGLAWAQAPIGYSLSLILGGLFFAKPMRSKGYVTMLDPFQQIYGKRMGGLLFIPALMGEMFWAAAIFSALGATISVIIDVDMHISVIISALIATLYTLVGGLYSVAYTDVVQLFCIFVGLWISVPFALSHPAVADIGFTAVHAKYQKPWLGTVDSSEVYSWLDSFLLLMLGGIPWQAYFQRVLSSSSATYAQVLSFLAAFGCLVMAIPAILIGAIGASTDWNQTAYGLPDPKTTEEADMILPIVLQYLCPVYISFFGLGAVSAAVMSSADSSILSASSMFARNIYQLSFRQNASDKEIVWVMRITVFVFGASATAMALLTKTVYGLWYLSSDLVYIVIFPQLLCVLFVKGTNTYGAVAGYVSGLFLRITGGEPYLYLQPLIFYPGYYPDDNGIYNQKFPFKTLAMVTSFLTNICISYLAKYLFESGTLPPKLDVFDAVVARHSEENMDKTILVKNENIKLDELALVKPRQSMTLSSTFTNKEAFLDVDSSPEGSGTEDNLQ

[2] = NIH3T3 cell viability loss – ATP luminescence, mouse fibroblasts, counter-screen, dose response (AID 2010); type: functional, cell-based;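 further: cells exposed to compound for about 90 hours before reading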
[3] = target: T2, Heat shock factor protein 1 (Mus musculus, UniProt P38532); assay: enhancement of HSF1-driven luciferase signal – cell-based, NIH3T3, luminescence, dose retest, confirmation (AID 435004); type: functional;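 further: stress induced by proteasome inhibitor MG132 added 30 min after compound; luciferase reporter driven by HSF1 response element in NIH3T3 cells; actives raise luminescence as potentiators of the MG132 stress response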
T2 sequence (P38532 whole entry): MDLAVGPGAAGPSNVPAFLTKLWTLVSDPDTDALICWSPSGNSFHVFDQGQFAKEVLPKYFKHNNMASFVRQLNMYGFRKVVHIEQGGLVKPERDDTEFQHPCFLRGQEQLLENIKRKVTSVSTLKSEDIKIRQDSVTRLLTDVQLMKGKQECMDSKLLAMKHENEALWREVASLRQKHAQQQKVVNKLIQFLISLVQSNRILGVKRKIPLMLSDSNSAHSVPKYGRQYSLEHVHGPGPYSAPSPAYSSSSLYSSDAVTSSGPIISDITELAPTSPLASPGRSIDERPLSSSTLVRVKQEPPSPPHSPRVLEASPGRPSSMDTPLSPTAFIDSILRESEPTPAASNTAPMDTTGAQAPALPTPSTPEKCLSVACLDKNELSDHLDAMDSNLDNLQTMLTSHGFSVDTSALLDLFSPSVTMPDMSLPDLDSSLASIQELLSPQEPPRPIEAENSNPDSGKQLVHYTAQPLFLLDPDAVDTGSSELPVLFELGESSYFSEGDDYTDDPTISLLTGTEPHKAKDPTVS

CAAX prenyl protease 2 = target: T3, CAAX prenyl protease 2 (Saccharomyces cerevisiae S288c, UniProt Q03530); assay: inhibition of Rce1p peptide cleavage – biochemical, plate reader, dry powder retest, dose response (AID 588851)
T3 sequence (Q03530 whole entry): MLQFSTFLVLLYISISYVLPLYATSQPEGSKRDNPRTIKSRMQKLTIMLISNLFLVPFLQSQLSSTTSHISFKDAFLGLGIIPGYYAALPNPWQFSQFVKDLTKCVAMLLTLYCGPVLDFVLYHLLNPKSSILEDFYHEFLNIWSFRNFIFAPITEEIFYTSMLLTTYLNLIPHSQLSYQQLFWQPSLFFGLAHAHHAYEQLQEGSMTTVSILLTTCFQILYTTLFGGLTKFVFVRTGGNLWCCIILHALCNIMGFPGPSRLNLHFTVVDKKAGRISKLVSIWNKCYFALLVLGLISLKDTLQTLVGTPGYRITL

[4] = Trypanosoma cruzi growth suppression in host cells – NIH3T3 host cells, beta-gal luminescence, confirmation (AID 2044); type: functional, cell-based;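 further: intracellular parasites grown in NIH/3T3 mouse fibroblasts as host cells; luminescent beta-galactosidase reporter signal from transgenic T. cruzi replicating inside host cells; inhibitors lower the luminescence signal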
HEK293 [5] = assay: membrane integrity loss in HEK cells – cell-based, fluorescence, cytotoxicity control for IDE activator project, dose response (AID 588440); type: functional; settings: Homo sapiens;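 further: cytotoxicity by LDH release measuring loss of membrane integrity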
Insulin-degrading enzyme [6] = target: T4, Insulin-degrading enzyme (Homo sapiens, UniProt P14735); assay: cellular IDE activation of Abeta substrate cleavage – fluorescence polarization, HEK cells, dose response (AID 588439); type: functional, cell-based
T4 sequence (P14735 whole entry): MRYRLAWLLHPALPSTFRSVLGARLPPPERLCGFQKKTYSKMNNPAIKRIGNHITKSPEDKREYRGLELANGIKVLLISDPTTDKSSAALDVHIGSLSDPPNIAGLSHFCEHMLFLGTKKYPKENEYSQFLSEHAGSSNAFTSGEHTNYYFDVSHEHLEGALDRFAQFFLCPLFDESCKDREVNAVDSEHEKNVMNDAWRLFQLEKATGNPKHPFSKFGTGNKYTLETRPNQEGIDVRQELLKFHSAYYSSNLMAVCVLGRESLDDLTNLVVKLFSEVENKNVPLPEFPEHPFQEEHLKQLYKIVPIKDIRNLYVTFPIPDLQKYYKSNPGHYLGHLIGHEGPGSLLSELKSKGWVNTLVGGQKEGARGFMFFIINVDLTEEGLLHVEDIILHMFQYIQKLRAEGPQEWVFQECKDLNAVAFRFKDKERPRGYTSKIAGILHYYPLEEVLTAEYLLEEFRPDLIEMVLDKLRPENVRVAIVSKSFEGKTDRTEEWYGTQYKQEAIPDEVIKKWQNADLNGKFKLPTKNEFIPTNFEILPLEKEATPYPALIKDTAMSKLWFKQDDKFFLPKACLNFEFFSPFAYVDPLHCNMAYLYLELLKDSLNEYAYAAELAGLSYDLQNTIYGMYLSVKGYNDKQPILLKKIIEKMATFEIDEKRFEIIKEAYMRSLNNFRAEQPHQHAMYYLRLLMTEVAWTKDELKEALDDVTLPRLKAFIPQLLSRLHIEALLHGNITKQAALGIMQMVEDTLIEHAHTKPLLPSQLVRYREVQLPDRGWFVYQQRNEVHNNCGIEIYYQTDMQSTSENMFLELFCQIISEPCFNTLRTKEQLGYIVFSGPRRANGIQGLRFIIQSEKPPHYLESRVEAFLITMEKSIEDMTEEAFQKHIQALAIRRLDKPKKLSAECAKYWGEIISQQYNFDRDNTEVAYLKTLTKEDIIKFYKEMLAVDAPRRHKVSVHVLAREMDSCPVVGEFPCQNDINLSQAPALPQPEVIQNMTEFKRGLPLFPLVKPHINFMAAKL

Insulin-degrading enzyme [7] = target: T4, Insulin-degrading enzyme; assay: recombinant IDE activation, cell-free – biochemical, fluorescence polarization, counter-screen for IDE activator project, dose response (AID 588681)
HEK293 [8] = assay: optical interference in Abeta FP readout, dose response, artefact control for IDE activator project, biochemical, fluorescence polarization (AID 588442); type: functional, cell-based; settings: Homo sapiens
[9] = target: T5, Calpain-2 catalytic subunit (Sus scrofa, UniProt P43367); assay: m-calpain protease blockers, concentration series – biochemical, fluorogenic peptide substrate, dose response (AID 1420); type: functional
T5 sequence (P43367 whole entry): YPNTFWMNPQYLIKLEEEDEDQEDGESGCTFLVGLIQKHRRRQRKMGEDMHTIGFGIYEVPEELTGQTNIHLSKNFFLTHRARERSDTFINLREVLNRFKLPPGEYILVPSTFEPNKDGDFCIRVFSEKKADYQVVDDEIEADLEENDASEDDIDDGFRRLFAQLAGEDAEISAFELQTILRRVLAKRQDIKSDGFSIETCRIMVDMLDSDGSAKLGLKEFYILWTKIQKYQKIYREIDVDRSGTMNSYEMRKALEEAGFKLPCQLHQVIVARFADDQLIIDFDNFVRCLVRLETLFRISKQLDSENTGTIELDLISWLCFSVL

[10] = target: T6, Orexin/Hypocretin receptor type 1 (Homo sapiens, UniProt O43613); assay: Homogeneous Time Resolved Fluorescence (HTRF)-based cell-based high throughput dose response assay for antagonists of the orexin 1 receptor (OX1R; HCRTR1). [Related pubchem assays (depositor defined):AID434989, AID435008, AID463079, AID485270, AID492963, AID492964, AID492965, AID493232, AID504717, AID504718]; type: functional
T6 sequence (O43613 whole entry): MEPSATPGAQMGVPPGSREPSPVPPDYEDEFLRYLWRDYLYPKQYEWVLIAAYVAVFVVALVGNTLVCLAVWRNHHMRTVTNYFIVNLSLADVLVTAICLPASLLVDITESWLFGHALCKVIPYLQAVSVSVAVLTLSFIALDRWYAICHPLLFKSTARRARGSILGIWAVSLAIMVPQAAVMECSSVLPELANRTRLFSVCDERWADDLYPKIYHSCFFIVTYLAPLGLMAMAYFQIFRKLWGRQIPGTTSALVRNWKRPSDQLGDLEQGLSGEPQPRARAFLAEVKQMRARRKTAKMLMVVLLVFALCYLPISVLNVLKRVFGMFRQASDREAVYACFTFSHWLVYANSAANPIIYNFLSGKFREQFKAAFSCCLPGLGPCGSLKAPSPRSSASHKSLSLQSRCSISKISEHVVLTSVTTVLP

Orexin receptor type 2 [11] = target: T7, Orexin receptor type 2 (Homo sapiens, UniProt O43614); assay: Counterscreen assay for antagonists of the orexin 1 receptor (OX1R; HCRTR1): Fluorescence-based cell-based dose response assay for antagonists of the orexin 2 receptor (OX2R; HCRTR2), run by assay provider.; type: functional
T7 sequence (O43614 whole entry): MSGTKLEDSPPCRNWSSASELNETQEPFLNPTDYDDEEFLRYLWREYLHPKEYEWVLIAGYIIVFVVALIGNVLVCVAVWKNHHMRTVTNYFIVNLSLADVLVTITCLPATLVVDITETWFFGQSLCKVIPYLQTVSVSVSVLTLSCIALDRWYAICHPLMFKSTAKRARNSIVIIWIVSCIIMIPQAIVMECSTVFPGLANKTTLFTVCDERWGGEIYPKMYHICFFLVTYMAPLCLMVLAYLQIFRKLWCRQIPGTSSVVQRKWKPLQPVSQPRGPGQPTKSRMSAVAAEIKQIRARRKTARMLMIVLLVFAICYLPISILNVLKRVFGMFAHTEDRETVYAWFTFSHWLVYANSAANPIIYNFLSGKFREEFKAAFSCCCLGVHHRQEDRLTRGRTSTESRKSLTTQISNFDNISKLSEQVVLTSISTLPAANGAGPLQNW

[12] = (§1) Counterscreen for antagonists of the orexin 1 receptor (OX1R; HCRTR1): Fluorescence-based cell-based high throughput dose response assay to identify antagonists of the parental CHO cell line. [Related pubchem assays (depositor defined):AID434989, AID435008, AID463079, AID485270, AID492963, AID492964, AID492965, AID493232, AID504699, AID504701]; type: functional
CHO-K1 = assay: as §1, with “Homogeneous time resolved fluorescence (HTRF)-based” for “Fluorescence-based”, “cell-based” for “cell-based high throughput”, “CHO-K1” for “CHO”; type: functional; settings: Cricetulus griseus;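 further: potency for inhibition of ATP-stimulated IP1 production as antagonists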
[13] = target: T6, Orexin/Hypocretin receptor type 1; assay: Fluorescence-based cell-based high throughput dose response assay for antagonists of the orexin 1 receptor (OX1R; HCRTR1). [Related pubchem assays (depositor defined):AID434989, AID435008, AID463079, AID485270, AID492963, AID492964, AID492965, AID493232, AID504717, AID504718]; type: functional
Orexin receptor type 2 [14] = target: T7, Orexin receptor type 2; assay: Counterscreen assay for antagonists of the orexin 1 receptor (OX1R; HCRTR1): Homogeneous Time Resolved Fluorescence (HTRF)-based cell-based dose response assay for antagonists of the orexin 2 receptor (OX2R; HCRTR2), run by assay provider.; type: functional
[15] = target: T1, High affinity choline transporter 1; assay: human choline transporter blockers, potency – cell-based, 5-point CRC, membrane potential dye, dose response (AID 504840); type: functional
[16] = target: T1, High affinity choline transporter 1; assay: human choline transporter blockers, potency – cell-based, 10-point CRC, membrane potential dye, dose response (AID 588401); type: functional;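 further: membrane potential dye fluorescence of choline-evoked depolarization via CHT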
[17] = target: Dual specificity mitogen-activated protein kinase kinase 1 (Homo sapiens, UniProt Q02750); assay: Navigating the Kinome. Panel member name: MAP2K1; type: functional
Sequence of Dual specificity mitogen-activated protein kinase kinase 1 (Q02750 whole entry): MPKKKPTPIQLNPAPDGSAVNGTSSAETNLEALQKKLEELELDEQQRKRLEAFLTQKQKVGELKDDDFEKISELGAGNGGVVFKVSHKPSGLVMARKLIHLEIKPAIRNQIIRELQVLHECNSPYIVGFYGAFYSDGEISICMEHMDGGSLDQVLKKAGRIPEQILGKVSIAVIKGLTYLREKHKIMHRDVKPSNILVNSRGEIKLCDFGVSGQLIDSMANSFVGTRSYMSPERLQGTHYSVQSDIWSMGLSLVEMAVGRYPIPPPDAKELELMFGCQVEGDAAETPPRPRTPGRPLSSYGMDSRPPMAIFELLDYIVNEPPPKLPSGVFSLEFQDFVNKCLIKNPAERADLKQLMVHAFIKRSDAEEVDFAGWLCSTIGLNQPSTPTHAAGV

[18] = target: Serine/threonine-protein kinase TAO1 (Homo sapiens, UniProt Q7L7X3); type: functional
Sequence of Serine/threonine-protein kinase TAO1 (Q7L7X3 whole entry): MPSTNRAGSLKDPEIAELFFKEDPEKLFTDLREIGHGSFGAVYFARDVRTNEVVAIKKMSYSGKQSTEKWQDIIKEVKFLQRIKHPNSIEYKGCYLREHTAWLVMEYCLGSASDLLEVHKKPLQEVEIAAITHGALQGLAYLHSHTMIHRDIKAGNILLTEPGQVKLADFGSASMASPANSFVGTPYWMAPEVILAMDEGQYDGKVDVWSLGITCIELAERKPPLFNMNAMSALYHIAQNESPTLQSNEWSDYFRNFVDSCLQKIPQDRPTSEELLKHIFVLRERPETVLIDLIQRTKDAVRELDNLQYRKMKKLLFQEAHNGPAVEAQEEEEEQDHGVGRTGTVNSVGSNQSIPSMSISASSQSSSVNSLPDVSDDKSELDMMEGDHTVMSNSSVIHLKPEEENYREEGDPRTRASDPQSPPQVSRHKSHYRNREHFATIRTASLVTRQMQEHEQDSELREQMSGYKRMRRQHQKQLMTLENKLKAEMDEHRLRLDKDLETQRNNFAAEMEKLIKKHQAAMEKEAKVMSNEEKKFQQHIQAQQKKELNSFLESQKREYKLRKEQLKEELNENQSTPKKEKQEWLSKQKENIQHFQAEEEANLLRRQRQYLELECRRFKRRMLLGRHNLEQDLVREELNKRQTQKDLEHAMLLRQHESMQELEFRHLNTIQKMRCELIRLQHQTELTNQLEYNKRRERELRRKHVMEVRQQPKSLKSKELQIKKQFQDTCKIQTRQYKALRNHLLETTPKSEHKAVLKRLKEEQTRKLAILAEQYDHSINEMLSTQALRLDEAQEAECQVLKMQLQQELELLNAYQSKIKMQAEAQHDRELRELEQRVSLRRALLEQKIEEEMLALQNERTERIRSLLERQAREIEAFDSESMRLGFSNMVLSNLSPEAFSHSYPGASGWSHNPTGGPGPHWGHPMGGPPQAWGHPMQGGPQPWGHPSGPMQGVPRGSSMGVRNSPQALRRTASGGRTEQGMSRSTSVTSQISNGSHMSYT

Activated CDC42 kinase 1 = Activated CDC42 kinase 1 (Homo sapiens, UniProt Q07912); assay: Navigating the Kinome. Panel member name: ACK1; type: functional
[19] = target: Vascular endothelial growth factor receptor 2 (Homo sapiens, UniProt P35968); type: functional
[20] = target: Glycogen synthase kinase-3 alpha (Homo sapiens, UniProt P49840); type: functional;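 further: GSK3A result taken from a broad kinome-wide kinase panel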
[21] = target: Serine/threonine-protein kinase pim-1 (Homo sapiens, UniProt P11309); type: functional
[22] = target: Tyrosine-protein kinase Fyn (Homo sapiens, UniProt P06241); type: functional
[23] = target: Glycogen synthase kinase-3 beta (Homo sapiens, UniProt P49841); type: functional;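 further: value comes from a broad kinome profiling panel, with GSK3B as the panel member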
[24] = target: Tyrosine-protein kinase receptor TYRO3 (Homo sapiens, UniProt Q06418); type: functional;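 further: TYRO3 value obtained as one member of a kinome-wide profiling panel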
[25] = target: Platelet-derived growth factor receptor beta (Homo sapiens, UniProt P09619); type: functional;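 further: value comes from a kinome panel, with PDGFRB tested as one panel member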
[26] = target: Leucine-rich repeat serine/threonine-protein kinase 2 (Homo sapiens, UniProt Q5S007); type: functional;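 further: value from a broad kinome-wide panel profiling study in which LRRK2 was one of the kinases tested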
[27] = target: Mitogen-activated protein kinase kinase kinase kinase 2 (Homo sapiens, UniProt Q12851); type: functional;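 further: measured as one member of a kinome-wide kinase panel, with MAP4K2 as the panel entry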
Sequence of Mitogen-activated protein kinase kinase kinase kinase 2 (Q12851 whole entry): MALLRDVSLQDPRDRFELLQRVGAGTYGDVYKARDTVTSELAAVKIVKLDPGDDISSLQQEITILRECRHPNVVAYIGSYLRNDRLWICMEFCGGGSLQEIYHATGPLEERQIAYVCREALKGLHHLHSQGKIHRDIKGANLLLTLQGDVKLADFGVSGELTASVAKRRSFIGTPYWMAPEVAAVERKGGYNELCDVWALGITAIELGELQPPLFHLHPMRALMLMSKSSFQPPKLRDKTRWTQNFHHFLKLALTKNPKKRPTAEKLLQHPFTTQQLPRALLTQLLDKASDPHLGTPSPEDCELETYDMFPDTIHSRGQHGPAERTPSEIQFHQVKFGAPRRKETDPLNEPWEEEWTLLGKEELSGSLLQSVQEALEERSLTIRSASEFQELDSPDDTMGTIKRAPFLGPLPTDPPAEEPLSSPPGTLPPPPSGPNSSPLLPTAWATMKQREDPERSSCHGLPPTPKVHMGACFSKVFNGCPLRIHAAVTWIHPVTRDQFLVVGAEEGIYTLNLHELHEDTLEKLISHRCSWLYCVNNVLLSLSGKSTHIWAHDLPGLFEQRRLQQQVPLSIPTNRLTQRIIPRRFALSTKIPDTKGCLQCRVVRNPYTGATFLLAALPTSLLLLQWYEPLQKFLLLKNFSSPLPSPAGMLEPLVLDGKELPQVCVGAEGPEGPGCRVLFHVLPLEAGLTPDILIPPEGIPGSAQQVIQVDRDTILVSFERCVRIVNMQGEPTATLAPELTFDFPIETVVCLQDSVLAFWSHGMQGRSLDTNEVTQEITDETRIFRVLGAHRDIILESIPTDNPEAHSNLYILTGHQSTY

[28] = target: Dual specificity mitogen-activated protein kinase kinase 2 (Homo sapiens, UniProt P36507); assay: Navigating the Kinome. Panel member name: MAP2K2; type: functional
[29] = target: Serine/threonine-protein kinase Chk1 (Homo sapiens, UniProt O14757); type: functional;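 further: measured as one member of a kinome-wide kinase profiling panel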
Sequence of Serine/threonine-protein kinase Chk1 (O14757 whole entry): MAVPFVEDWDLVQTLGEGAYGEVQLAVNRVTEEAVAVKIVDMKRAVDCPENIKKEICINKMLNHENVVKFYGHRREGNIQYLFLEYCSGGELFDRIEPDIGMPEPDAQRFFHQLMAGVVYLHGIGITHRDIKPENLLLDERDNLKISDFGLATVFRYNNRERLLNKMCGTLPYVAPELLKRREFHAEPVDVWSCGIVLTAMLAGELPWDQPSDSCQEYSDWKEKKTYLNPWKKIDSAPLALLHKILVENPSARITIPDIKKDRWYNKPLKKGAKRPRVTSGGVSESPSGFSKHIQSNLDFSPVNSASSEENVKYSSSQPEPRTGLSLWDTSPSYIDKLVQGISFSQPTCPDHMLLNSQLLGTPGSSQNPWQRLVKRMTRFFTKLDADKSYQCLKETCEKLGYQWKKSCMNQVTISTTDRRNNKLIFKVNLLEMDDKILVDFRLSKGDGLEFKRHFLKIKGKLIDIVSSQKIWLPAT

[30] = target: Cyclin-dependent kinase 19 (Homo sapiens, UniProt Q9BWU1); assay: Navigating the Kinome. Panel member name: CDC2L6; type: functional
[31] = target: ALK tyrosine kinase receptor (Homo sapiens, UniProt Q9UM73); type: functional;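 further: ALK tested as one member of a kinase panel screen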
[32] = target: Cyclin-dependent kinase 8 (Homo sapiens, UniProt P49336); assay: Navigating the Kinome. Panel member name: CDK8; type: functional
Sequence of Cyclin-dependent kinase 8 (P49336 whole entry): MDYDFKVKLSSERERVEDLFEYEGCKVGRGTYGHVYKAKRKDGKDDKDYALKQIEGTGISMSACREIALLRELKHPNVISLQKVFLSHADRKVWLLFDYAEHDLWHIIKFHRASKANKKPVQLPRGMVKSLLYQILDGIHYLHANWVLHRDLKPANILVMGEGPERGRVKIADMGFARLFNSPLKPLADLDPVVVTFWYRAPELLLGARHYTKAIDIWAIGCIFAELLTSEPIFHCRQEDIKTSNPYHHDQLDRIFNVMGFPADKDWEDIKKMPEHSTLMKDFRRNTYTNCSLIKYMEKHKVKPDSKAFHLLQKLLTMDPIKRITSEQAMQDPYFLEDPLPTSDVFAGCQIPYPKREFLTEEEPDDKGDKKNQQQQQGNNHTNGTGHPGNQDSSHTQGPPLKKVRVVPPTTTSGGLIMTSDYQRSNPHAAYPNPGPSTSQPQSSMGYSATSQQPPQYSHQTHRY

[33] = target: Tyrosine-protein kinase BTK (Homo sapiens, UniProt Q06187); type: functional
[34] = target: Fibroblast growth factor receptor 1 (Homo sapiens, UniProt P11362); type: functional
[35] = target: Mitogen-activated protein kinase 8 (Homo sapiens, UniProt P45983); type: functional;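 further: value comes from one member of a kinome-wide kinase profiling panel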
[36] = target: G protein-coupled receptor kinase 5 (Homo sapiens, UniProt P34947); assay: Navigating the Kinome. Panel member name: GPRK5; type: functional
[37] = target: Serine/threonine-protein kinase Nek2 (Homo sapiens, UniProt P51955); type: functional
[38] = target: Inhibitor of nuclear factor kappa-B kinase subunit epsilon (Homo sapiens, UniProt Q14164); assay: Navigating the Kinome. Panel member name: IKBKE; type: functional
[39] = target: DNA dC->dU-editing enzyme APOBEC-3G (Homo sapiens, UniProt Q9HC16); assay: inhibition of APOBEC3G ssDNA deamination – biochemical, fluorescence, single-stranded DNA substrate, SAR follow-up (AID 602136); type: functional; settings: read-out: IC50_Mean
[40] = target: DNA dC->dU-editing enzyme APOBEC-3A (Homo sapiens, UniProt P31941); assay: SAR analysis of small molecule inhibitors of APOBEC3A DNA Deaminase via a fluorescence-based single-stranded DNA deaminase assay.; type: functional; settings: read-out: IC50_Mean

COc1ccc(-c2nnc(SC(C)C(=O)NCc3ccc4c(c3)OCO4)n2Cc2ccco2)cc1 (stereo not drawn)
active: EC50 [1] 24.3 µM

COc1ccc(-n2c(SCc3ccc([N+](=O)[O-])cc3)nnc2-c2ccc(C)cc2)cc1
active: AC50 (CAAX prenyl protease 2) 5.39 µM | EC50 [4] 1.35 µM
inconclusive: EC50 [2] > 60 µM
inactive: EC50 [3] > 260 µM

COc1ccc(OCCNc2cc(N3CCOCC3)ccc2[N+](=O)[O-])cc1
inactive: IC50 (HEK293 [5]) > 89.3 µM | EC50 (Insulin-degrading enzyme [6]) > 54.7 µM | EC50 (Insulin-degrading enzyme [7]) > 54.7 µM | EC50 (HEK293 [8]) > 56 µM
13.8 µM (not active): IC50 [9]

COc1cccc(/C=C2/Oc3ccccc3N(CC(=O)NCC3CCCO3)C2=O)c1 (stereo not drawn)
inactive: IC50 [12] > 49.7 µM | IC50 (CHO-K1) > 66.2 µM
active: IC50 [10] 0.254 µM | IC50 (Orexin receptor type 2 [11]) 3.82 µM | IC50 [13] 0.426 µM | IC50 (Orexin receptor type 2 [14]) 0.96 µM

Cc1cccc(NC(=O)c2[nH]nc([N+](=O)[O-])c2Br)c1C
active: IC50 [15] 4.1 µM | IC50 [16] 1.41 µM

O=c1[nH]n2ccccc2c1Br
inactive: Ki [18] > 6.31 µM
active: Ki [17] 2.51 µM | Ki (Activated CDC42 kinase 1) 3.98 µM | Ki [19] 2 µM | Ki [20] 3.98 µM | Ki [21] 3.98 µM | Ki [22] 5.01 µM | Ki [23] 3.16 µM | Ki [24] 2.51 µM | Ki [25] 2 µM | Ki [26] 2.51 µM | Ki [27] 2.51 µM | Ki [28] 1.58 µM | Ki [29] 0.631 µM | Ki [30] 3.16 µM | Ki [31] 5.01 µM | Ki [32] 3.98 µM | Ki [33] 5.01 µM | Ki [34] 3.98 µM | Ki [35] 5.01 µM | Ki [36] 3.98 µM | Ki [37] 3.16 µM | Ki [38] 3.16 µM

COc1ccc(-c2nnc(SCC(=O)c3cccc(Br)c3)[nH]2)cc1
inactive: IC50 [39] > 99 µM | IC50 [40] > 99 µM
